Patent US20150335696A1, “METHODS OF DEGRADING AGEs AND USES THEREOF” (ARKRAY, Inc., priority 2014, published 2015)

Test: AGEs-degrading activity: cleavage of AGEs crosslink model substance PPD, released benzoic acid measured by HPLC
Format: biochemical
Method: In the present example, AGEs-degrading activities of plant extracts were evaluated with 1-phenyl-1,2-propanedione (PPD) as an index.
The AGEs-degrading activity was evaluated by measuring the cleavage reaction of crosslinks in AGEs. Specifically, the evaluation was carried out in the following manner on the basis of the method described in Vasan et al. (Vasan S, et al., An agent cleaving glucose-derived protein crosslinks in vitro and in vivo. 1996. Nature; 382: pp. 275-278).
As a model substance for crosslinks in AGEs, 1-phenyl-1,2-propanedione (PPD) was used. A degradation reaction was caused by each extract sample with PPD as a substrate. More specifically, a reaction solution having the following composition was obtained by mixing the components in an Eppendorf tube, and the resultant mixture was incubated at 37° C. for 8 hours (n=3). […] The amount of benzoic acid released by the degradation of PPD in the supernatant was measured by HPLC carried out under the following conditions. Also, the amount of benzoic acid inherently contained in the extract sample was measured by HPLC carried out under the same conditions. Furthermore, as a positive control regarding the cleavage of crosslinks, the amount of released benzoic acid was measured in the same manner, except that 500 μL of 10 mmol/L phenacylthiazolium bromide (PTB) was used instead of the extract sample. […]

**Q.** For `O=C(C[n+]1ccsc1)c1ccccc1.[Br-]` [PTB, phenacylthiazolium bromide], which “Relative activity Mean ± SD (%)” value (AGEs crosslink cleavage ratio relative to positive control PTB = 100%) is on record?
**A.** 100.0%

**Q.** What about the “AGEs crosslink cleavage ratio Mean ± SD (%)” value (PPD substrate, 37° C. for 8 hours, n=3, molar benzoic acid produced / molar PPD (B/P)) of the same compound?
**A.** 38.2 ± 0.7%
